Experimental data: ChEMBL document CHEMBL6153025, “Multidrug-resistant bacteria quorum-sensing inhibitors: A particular focus on Pseudomonasaeruginosa” (Eur J Med Chem, 2025)

Key:
[1] = Inhibition of quorum sensing system in Pseudomonas aeruginosa PAO1- rhlA-gfp assessed as reduction in fluorescence intensity measured for 12 hrs by GFP reporter strain assay
[2] = Inhibition of quorum sensing system in Pseudomonas aeruginosa PAO1-pqsA-gfp assessed as reduction in fluorescence intensity incubated for 12 hrs by GFP reporter strain assay
Pseudomonas aeruginosa [3] = assay: Antivirulence activity against Pseudomonas aeruginosa PAO1 assessed as reduction in pyocyanin level at 10 uM relative to control; assay type: functional; set-up: scale not given: the % may be the effect or the level left
Pseudomonas aeruginosa [4] = assay: Downregulation of rhlA mRNA level in Pseudomonas aeruginosa PAO1 at 32 ug/ml relative to control; assay type: functional; conditions: dose 32 µg/ml
Pseudomonas aeruginosa [5] = assay: Antibiofilm activity against logarithmic growth phase Pseudomonas aeruginosa PAO1 assessed as inhibition of biofilm formation incubated for 20 hrs by crystal violet staining based analysis; assay type: functional, organism-based; conditions: PAO1, 20 h
Pseudomonas aeruginosa [6] = assay: Antivirulence activity against Pseudomonas aeruginosa PA21 assessed as reduction in hemolysin activity incubated for 1 hr by absorbance based analysis relative to control; assay type: functional; set-up: scale not given: the % may be the effect or the level left
Pseudomonas aeruginosa [7] = assay: Antivirulence activity against Pseudomonas aeruginosa PAO1 assessed as reduction in pyocyanin production incubated for 1 hr by absorbance based analysis relative to control; assay type: functional; set-up: scale not given: the % may be the effect or the level left
Pseudomonas aeruginosa [8] = assay: Antivirulence activity against Pseudomonas aeruginosa PA14 assessed as reduction in pyocyanin production incubated for 1 hr by absorbance based analysis relative to control; assay type: functional; set-up: scale not given: the % may be the effect or the level left
Pseudomonas aeruginosa [9] = assay: Antibiofilm activity against Pseudomonas aeruginosa PA22 assessed as reduction in biofilm formation at 1/2 sub-MIC doses incubated for 24 hrs by crystal violet staining based analysis relative to control; assay type: functional; set-up: scale not given: the % may be the effect or the level left
Pseudomonas aeruginosa [10] = assay: Antivirulence activity against Pseudomonas aeruginosa PA21 assessed as reduction in protease production incubated for 1 hr by absorbance based analysis relative to control; assay type: functional; set-up: scale not given: the % may be the effect or the level left
Pseudomonas aeruginosa [11] = assay: Antibiofilm activity against Pseudomonas aeruginosa PA23 assessed as reduction in biofilm formation at 1/2 sub-MIC doses incubated for 24 hrs by crystal violet staining based analysis relative to control; assay type: functional; set-up: scale not given: the % may be the effect or the level left
Pseudomonas aeruginosa [12] = assay: Antivirulence activity against Pseudomonas aeruginosa PAO1 assessed as reduction in hemolysin activity incubated for 1 hr by absorbance based analysis relative to control; assay type: functional; set-up: scale not given: the % may be the effect or the level left
Pseudomonas aeruginosa [13] = assay: Antivirulence activity against Pseudomonas aeruginosa PA22 assessed as reduction in protease production incubated for 1 hr by absorbance based analysis relative to control; assay type: functional; set-up: scale not given: the % may be the effect or the level left
Pseudomonas aeruginosa [14] = assay: Antibiofilm activity against Pseudomonas aeruginosa PA22 assessed as reduction in biofilm formation at 1/4 sub-MIC doses incubated for 24 hrs by crystal violet staining based analysis relative to control; assay type: functional; set-up: scale not given: the % may be the effect or the level left
Pseudomonas aeruginosa [15] = assay: Antibiofilm activity against Pseudomonas aeruginosa PA21 assessed as reduction in biofilm formation at 1/4 sub-MIC doses incubated for 24 hrs by crystal violet staining based analysis relative to control; assay type: functional; set-up: scale not given: the % may be the effect or the level left
Pseudomonas aeruginosa [16] = assay: Antibiofilm activity against Pseudomonas aeruginosa PAO1 assessed as reduction in biofilm formation at 16 ug/ml incubated for 2 to 4 hrs by crystal violet staining based analysis relative to control; assay type: functional; set-up: scale not given: the % may be the effect or the level left; conditions: dose 16 µg/ml; time 2-4 hrs
Pseudomonas aeruginosa [17] = assay: Antivirulence activity against Pseudomonas aeruginosa PA23 assessed as reduction in hemolysin activity incubated for 1 hr by absorbance based analysis relative to control; assay type: functional; set-up: scale not given: the % may be the effect or the level left
Pseudomonas aeruginosa [18] = assay: Antivirulence activity against Pseudomonas aeruginosa PA23 assessed as reduction in pyocyanin production incubated for 1 hr by absorbance based analysis relative to control; assay type: functional; set-up: scale not given: the % may be the effect or the level left
Pseudomonas aeruginosa [19] = assay: Antivirulence activity against Pseudomonas aeruginosa PA24 assessed as reduction in protease production incubated for 1 hr by absorbance based analysis relative to control; assay type: functional; set-up: scale not given: the % may be the effect or the level left
Pseudomonas aeruginosa [20] = assay: Antibiofilm activity against Pseudomonas aeruginosa PA23 assessed as reduction in biofilm formation at 1/4 sub-MIC doses incubated for 24 hrs by crystal violet staining based analysis relative to control; assay type: functional; set-up: scale not given: the % may be the effect or the level left
Pseudomonas aeruginosa [21] = assay: Antivirulence activity against Pseudomonas aeruginosa PA21 assessed as reduction in pyocyanin production incubated for 1 hr by absorbance based analysis relative to control; assay type: functional; set-up: scale not given: the % may be the effect or the level left
Pseudomonas aeruginosa [22] = assay: Antivirulence activity against Pseudomonas aeruginosa PA22 assessed as reduction in pyocyanin production incubated for 1 hr by absorbance based analysis relative to control; assay type: functional; set-up: scale not given: the % may be the effect or the level left
Pseudomonas aeruginosa [23] = assay: Antivirulence activity against Pseudomonas aeruginosa PA24 assessed as reduction in hemolysin activity incubated for 1 hr by absorbance based analysis relative to control; assay type: functional; set-up: scale not given: the % may be the effect or the level left
Pseudomonas aeruginosa [24] = assay: Antibiofilm activity against Pseudomonas aeruginosa PA21 assessed as reduction in biofilm formation at 1/2 sub-MIC doses incubated for 24 hrs by crystal violet staining based analysis relative to control; assay type: functional; set-up: scale not given: the % may be the effect or the level left
Pseudomonas aeruginosa [25] = assay: Antivirulence activity against Pseudomonas aeruginosa PA23 assessed as reduction in protease production incubated for 1 hr by absorbance based analysis relative to control; assay type: functional; set-up: scale not given: the % may be the effect or the level left
Pseudomonas aeruginosa [26] = assay: Antibiofilm activity against Pseudomonas aeruginosa PA24 assessed as reduction in biofilm formation at 1/4 sub-MIC doses incubated for 24 hrs by crystal violet staining based analysis relative to control; assay type: functional; set-up: scale not given: the % may be the effect or the level left
Pseudomonas aeruginosa [27] = assay: Antibiofilm activity against Pseudomonas aeruginosa PAO1 assessed as reduction in biofilm formation at 1/4 sub-MIC doses incubated for 24 hrs by crystal violet staining based analysis relative to control; assay type: functional; set-up: scale not given: the % may be the effect or the level left
Pseudomonas aeruginosa [28] = assay: Antivirulence activity against Pseudomonas aeruginosa PA14 assessed as reduction in hemolysin activity incubated for 1 hr by absorbance based analysis relative to control; assay type: functional; set-up: scale not given: the % may be the effect or the level left
Pseudomonas aeruginosa [29] = assay: Antivirulence activity against Pseudomonas aeruginosa PA24 assessed as reduction in pyocyanin production incubated for 1 hr by absorbance based analysis relative to control; assay type: functional; set-up: scale not given: the % may be the effect or the level left
Pseudomonas aeruginosa [30] = assay: Antivirulence activity against Pseudomonas aeruginosa PA14 assessed as reduction in protease production incubated for 1 hr by absorbance based analysis relative to control; assay type: functional; set-up: scale not given: the % may be the effect or the level left
Pseudomonas aeruginosa [31] = assay: Antibiofilm activity against Pseudomonas aeruginosa PA24 assessed as reduction in biofilm formation at 1/2 sub-MIC doses incubated for 24 hrs by crystal violet staining based analysis relative to control; assay type: functional; set-up: scale not given: the % may be the effect or the level left
Pseudomonas aeruginosa [32] = assay: Antivirulence activity against Pseudomonas aeruginosa PA22 assessed as reduction in hemolysin activity incubated for 1 hr by absorbance based analysis relative to control; assay type: functional; set-up: scale not given: the % may be the effect or the level left
Pseudomonas aeruginosa [33] = assay: Antivirulence activity against Pseudomonas aeruginosa PAO1 assessed as reduction in protease production incubated for 1 hr by absorbance based analysis relative to control; assay type: functional; set-up: scale not given: the % may be the effect or the level left
Pseudomonas aeruginosa [34] = assay: Antibiofilm activity against Pseudomonas aeruginosa PA14 assessed as reduction in biofilm formation at 1/4 sub-MIC doses incubated for 24 hrs by crystal violet staining based analysis relative to control; assay type: functional; set-up: scale not given: the % may be the effect or the level left
Pseudomonas aeruginosa [35] = assay: Antibiofilm activity against Pseudomonas aeruginosa PAO1 assessed as reduction in biofilm formation at 1/2 sub-MIC doses incubated for 24 hrs by crystal violet staining based analysis relative to control; assay type: functional; set-up: scale not given: the % may be the effect or the level left
Pseudomonas aeruginosa [36] = assay: Antibiofilm activity against Pseudomonas aeruginosa PA14 assessed as reduction in biofilm formation at 1/2 sub-MIC doses incubated for 24 hrs by crystal violet staining based analysis relative to control; assay type: functional; set-up: scale not given: the % may be the effect or the level left
Pseudomonas aeruginosa [37] = assay: Inhibition of rhamnolipid production in Pseudomonas aeruginosa PAO1; assay type: functional, organism-based
Pseudomonas aeruginosa [38] = assay: Antibiofilm activity against Pseudomonas aeruginosa ATCC 27853 assessed as reduction in biofilm biomass at 16 ug/ml relative to control; assay type: functional; set-up: scale not given: the % may be the effect or the level left; conditions: dose 16 µg/ml
Pseudomonas aeruginosa [39] = assay: Anti-virulence activity in Pseudomonas aeruginosa PAO1 assessed as reduction in elastase production; assay type: functional, organism-based
[40] = Inhibition of quorum sensing system in Pseudomonas aeruginosa PAO1 expressing lasB-gfp
Pseudomonas aeruginosa [41] = assay: Inhibition of pyocyanin production in Pseudomonas aeruginosa PAO1; assay type: functional, organism-based
Pseudomonas aeruginosa [42] = assay: Downregulation of lasI mRNA expression level in Pseudomonas aeruginosa PAO1 at 200 uM by RT-PCR analysis relative to control; assay type: functional
Pseudomonas aeruginosa [43] = assay: Downregulation of lasR mRNA expression level in Pseudomonas aeruginosa PAO1 at 200 uM by RT-PCR analysis relative to control; assay type: functional
Pseudomonas aeruginosa [44] = assay: Downregulation of rhlI mRNA expression level in Pseudomonas aeruginosa PAO1 at 200 uM by RT-PCR analysis relative to control; assay type: functional
Pseudomonas aeruginosa [45] = assay: Downregulation of rhlR mRNA expression level in Pseudomonas aeruginosa PAO1 at 200 uM by RT-PCR analysis relative to control; assay type: functional
Pseudomonas aeruginosa [46] = assay: Antibiofilm activity against Pseudomonas aeruginosa PAO1; assay type: functional, organism-based
Pseudomonas aeruginosa [47] = assay: Antivirulence activity in Pseudomonas aeruginosa PAO1 assessed as reduction in elastase production at 10 uM relative to control; assay type: functional; set-up: scale not given: the % may be the effect or the level left
Pseudomonas aeruginosa [48] = assay: Inhibition of rhamnolipid production in Pseudomonas aeruginosa PAO1 incubated for 24 hrs by spectrophotometric analysis; assay type: functional, organism-based; conditions: PAO1, 24 h
Pseudomonas aeruginosa [49] = assay: Antibiofilm activity against Pseudomonas aeruginosa PAO1 assessed as inhibition of biofilm formation at 1 to 100 uM incubated for 24 hrs by crystal violet staining based assay relative to control; assay type: functional; set-up: scale not given: the % may be the effect or the level left; conditions: dose 1-100 µM
[50] = Inhibition of quorum sensing system in Pseudomonas aeruginosa PAO1 expressing lasB-gfp at 10 uM relative to control
Pseudomonas aeruginosa [51] = assay: Antibiofilm activity against Pseudomonas aeruginosa PAO1 assessed as inhibition of biofilm formation at 100 uM relative to control; assay type: functional; set-up: scale not given: the % may be the effect or the level left

## C=C1CC(=O)N(c2ccc(Br)cc2)C1=O
[1]
  IC50: 6.67 µM
[2]
  IC50: 2.51 µM
Pseudomonas aeruginosa [3]
  Activity: 55%
Pseudomonas aeruginosa [4]
  Activity: 78%
Pseudomonas aeruginosa [5]
  IC50: 10 µM

## COC(=O)c1cc(O)c(O)c(O)c1 [GALLIC ACID METHYL ESTER]
Pseudomonas aeruginosa [6]
  Activity: 63.2%
Pseudomonas aeruginosa [7]
  Activity: 68.1%
Pseudomonas aeruginosa [8]
  Activity: 66.5%
Pseudomonas aeruginosa [9]
  Activity: 82.2%
Pseudomonas aeruginosa [10]
  Activity: 53.6%
Pseudomonas aeruginosa [11]
  Activity: 83.8%
Pseudomonas aeruginosa [12]
  Activity: 63.9%
Pseudomonas aeruginosa [13]
  Activity: 47.3%
Pseudomonas aeruginosa [14]
  Activity: 81.5%
Pseudomonas aeruginosa [15]
  Activity: 77.8%
Pseudomonas aeruginosa [16]
  Activity: 63%
Pseudomonas aeruginosa [17]
  Activity: 49.8%
Pseudomonas aeruginosa [18]
  Activity: 79.6%
Pseudomonas aeruginosa [19]
  Activity: 42.4%
Pseudomonas aeruginosa [20]
  Activity: 77.9%
Pseudomonas aeruginosa [21]
  Activity: 87.3%
Pseudomonas aeruginosa [22]
  Activity: 80.9%
Pseudomonas aeruginosa [23]
  Activity: 55.7%
Pseudomonas aeruginosa [24]
  Activity: 83.3%
Pseudomonas aeruginosa [25]
  Activity: 27.6%
Pseudomonas aeruginosa [26]
  Activity: 78.1%
Pseudomonas aeruginosa [27]
  Activity: 77.6%
Pseudomonas aeruginosa [28]
  Activity: 60.5%
Pseudomonas aeruginosa [29]
  Activity: 78.7%
Pseudomonas aeruginosa [30]
  Activity: 40.1%
Pseudomonas aeruginosa [31]
  Activity: 83.7%
Pseudomonas aeruginosa [32]
  Activity: 57.8%
Pseudomonas aeruginosa [33]
  Activity: 40.3%
Pseudomonas aeruginosa [34]
  Activity: 78.6%
Pseudomonas aeruginosa [35]
  Activity: 83%
Pseudomonas aeruginosa [36]
  Activity: 81.6%

## O=C(/C=C/c1ccc(O)c(O)c1)OCCc1ccc(Br)cc1
Pseudomonas aeruginosa [37]
  IC50: 1.25 µM
Pseudomonas aeruginosa [38]
  Activity: 33.69%
Pseudomonas aeruginosa [39]
  IC50: 20 µM
[40]
  IC50: 20 µM
Pseudomonas aeruginosa [41]
  IC50: 20 µM

## O=c1cc(-c2ccc(O)c(O)c2)oc2cc(O)cc(O)c12 [LUTEOLIN]
Pseudomonas aeruginosa [42]
  Activity: 98%
Pseudomonas aeruginosa [43]
  Activity: 98%
Pseudomonas aeruginosa [44]
  Activity: 98%
Pseudomonas aeruginosa [45]
  Activity: 98%
Pseudomonas aeruginosa [46]
  IC50: 50 µM

## C=C1CC(=O)N(CCCCCCCCCCCCCC)C1=O
[1]
  IC50: 0.61 µM
[2]
  IC50: 0.143 µM
Pseudomonas aeruginosa [3]
  Activity: 55%
Pseudomonas aeruginosa [4]
  Activity: 75%
Pseudomonas aeruginosa [47]
  Activity: 50%

## O=C(/C=C/c1ccc(O)c(O)c1)c1ccc(O)cc1O [BUTEIN]
Pseudomonas aeruginosa [48]
  IC50: 50 µM
Pseudomonas aeruginosa [49]
  Activity: 72.45%

## O=Cc1ccc2c(c1)OC(c1ccc(O)c(O)c1)O2 (stereo not given)
[50]
  inhibition: 30%
Pseudomonas aeruginosa [51]
  Activity: 44.63%
